Results as given in PubChem BioAssay AID248 (DTP/NCI, 2004).
Where “and” joins values, the source holds several entries; their conditions need not be identical. Equal entries are not always repeated. Toxic doses and inconclusive results are not listed. Rule as the data show it: active = T/C of 150% or more; inactive = T/C below 125%.

Tested on: L1210 leukemia ip in BDF1 mice, survival T/C
Assay: NCI In Vivo Anticancer Drug Screen. Data for tumor model L1210 Leukemia (intraperitoneal) in B6D2F1 (BDF1) mice
Settings: endpoint: mean survival time, higher = longer survival
How it was run: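 Value reflects the ratio of survival in compound-treated mice to survival in vehicle-treated controls, with both groups carrying the same transplanted tumor.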

[1] = dose: 100.0 mg/kg/injection, schedule: Q01DX001 (ip), vehicle: Klucel (hydroxypropylcellulose) (HPC)
[2] = dose: 200.0 mg/kg/injection, schedule: Q01DX001 (ip), vehicle: Klucel (hydroxypropylcellulose) (HPC)
[3] = dose: 400.0 mg/kg/injection, schedule: Q01DX001 (ip), vehicle: Klucel (hydroxypropylcellulose) (HPC)
[4] = dose: 400.0 mg/kg/injection, schedule: Q01DX001 (ip), vehicle: carboxymethylcellulose (CMC)
[5] = dose: 100.0 mg/kg/injection, schedule: Q04DX003 (ip), vehicle: saline
[6] = dose: 200.0 mg/kg/injection, schedule: Q04DX003 (ip), vehicle: saline
[7] = dose: 400.0 mg/kg/injection, schedule: Q04DX003 (ip), vehicle: saline
[8] = dose: 100.0 mg/kg/injection, schedule: Q01DX009 (ip), vehicle: saline
[9] = dose: 100.0 mg/kg/injection, schedule: Q01DX001 (ip), vehicle: saline
[10] = dose: 200.0 mg/kg/injection, schedule: Q01DX001 (ip), vehicle: saline
[11] = dose: 400.0 mg/kg/injection, schedule: Q01DX001 (ip), vehicle: saline

Measured: T/C

COC[P+](c1ccccc1)(c1ccccc1)c1ccccc1
inactive: dose: 1.25 mg/kg/injection, schedule: Q01DX001 (ip), vehicle: Klucel (hydroxypropylcellulose) (HPC) 96 % of control | dose: 1.25 mg/kg/injection, schedule: Q01DX009 (ip), vehicle: Klucel (hydroxypropylcellulose) (HPC) 90 % of control | dose: 2.5 mg/kg/injection, schedule: Q01DX001 (ip), vehicle: Klucel (hydroxypropylcellulose) (HPC) 105 % of control | dose: 2.5 mg/kg/injection, schedule: Q01DX009 (ip), vehicle: Klucel (hydroxypropylcellulose) (HPC) 92 % of control | dose: 5.0 mg/kg/injection, schedule: Q01DX001 (ip), vehicle: Klucel (hydroxypropylcellulose) (HPC) 97 % of control | dose: 5.0 mg/kg/injection, schedule: Q01DX009 (ip), vehicle: Klucel (hydroxypropylcellulose) (HPC) 96 % of control | dose: 10.0 mg/kg/injection, schedule: Q01DX001 (ip), vehicle: Klucel (hydroxypropylcellulose) (HPC) 100 % of control | dose: 10.0 mg/kg/injection, schedule: Q01DX009 (ip), vehicle: Klucel (hydroxypropylcellulose) (HPC) 113 % of control

O=C(COc1ccc(Cl)cc1C(=O)O)Nc1cccc(NC(=O)Nc2cc(S(=O)(=O)F)ccc2Cl)c1
inactive: [1] 94 % of control | [2] 88 % of control | [3] 91 % of control

CCCC(=O)Nc1ccn(C2OC(COC(=O)CCC)C(OC(=O)CCC)C2OC(=O)CCC)c(=O)n1 (centres undefined)
inactive: dose: 177.0 mg/kg/injection, schedule: Q01DX001 (ip), vehicle: carboxymethylcellulose (CMC) 101 % of control | dose: 266.0 mg/kg/injection, schedule: Q01DX001 (ip), vehicle: carboxymethylcellulose (CMC) 116 % of control | [4] 117 % of control

CC(C)C(=O)Nc1cccc(OC(=O)NC(C)(C)C)c1
inactive: dose: 200.0 mg/kg/injection, schedule: Q01DX001 (ip), vehicle: saline with Tween-80 89 % of control | dose: 400.0 mg/kg/injection, schedule: Q01DX001 (ip), vehicle: saline with Tween-80 87 % of control

C1=CC2(CC1)OCCO2
inactive: dose: 50.0 mg/kg/injection, schedule: Q01DX009 (ip), vehicle: saline with Tween-80 106 % of control | dose: 50.0 mg/kg/injection, schedule: Q04DX003 (ip), vehicle: saline with Tween-80 91 % of control | dose: 100.0 mg/kg/injection, schedule: Q01DX009 (ip), vehicle: saline with Tween-80 104 % of control | dose: 100.0 mg/kg/injection, schedule: Q04DX003 (ip), vehicle: saline with Tween-80 102 % of control | dose: 200.0 mg/kg/injection, schedule: Q01DX009 (ip), vehicle: saline with Tween-80 106 % of control | dose: 200.0 mg/kg/injection, schedule: Q04DX003 (ip), vehicle: saline with Tween-80 92 % of control | dose: 400.0 mg/kg/injection, schedule: Q01DX009 (ip), vehicle: saline with Tween-80 104 % of control | dose: 400.0 mg/kg/injection, schedule: Q04DX003 (ip), vehicle: saline with Tween-80 102 % of control

NC(N)=N/N=C(\c1ccc(F)cc1)C1CC1
inactive: dose: 15.0 mg/kg/injection, schedule: Q01DX Z (ip), vehicle: methylcellulose (MC) 94 % of control | dose: 15.0 mg/kg/injection, schedule: Q01DX Z (oral), vehicle: methylcellulose (MC) 110 % of control | dose: 30.0 mg/kg/injection, schedule: Q01DX Z (ip), vehicle: methylcellulose (MC) 95 % of control | dose: 30.0 mg/kg/injection, schedule: Q01DX Z (oral), vehicle: methylcellulose (MC) 105 % of control | dose: 60.0 mg/kg/injection, schedule: Q01DX Z (oral), vehicle: methylcellulose (MC) 96 % of control | dose: 120.0 mg/kg/injection, schedule: Q01DX Z (oral), vehicle: methylcellulose (MC) 104 % of control

Cc1ccc(S(=O)(=O)N(CCC(=O)O)Cc2ccccc2)cc1
inactive: dose: 100.0 mg/kg/injection, schedule: Q01DX001 (ip), vehicle: carboxymethylcellulose (CMC) 121 % of control | dose: 200.0 mg/kg/injection, schedule: Q01DX001 (ip), vehicle: carboxymethylcellulose (CMC) 103 % of control | [4] 108 % of control

CC(=O)OCc1cc2cc(O)ccc2nc1C
inactive: [5] 110 % of control | [6] 110 % of control | [7] 116 % of control

C#CCN(C)C(C)=O
inactive: dose: 25.0 mg/kg/injection, schedule: Q01DX009 (ip), vehicle: saline 104 % of control | dose: 25.0 mg/kg/injection, schedule: Q04DX003 (ip), vehicle: saline 95 % of control | dose: 50.0 mg/kg/injection, schedule: Q01DX009 (ip), vehicle: saline 102 % of control | dose: 50.0 mg/kg/injection, schedule: Q04DX003 (ip), vehicle: saline 101 % of control | [8] 105 % of control | [5] 96 % of control and 101 % of control

Oc1ccc(-c2nc3ccccc3s2)cc1
inactive: [1] 105 % of control | [2] 113 % of control | [3] 111 % of control

CCOC(=O)C(CO)(CO)C(=O)OCC
inactive: [8] 106 % of control | dose: 200.0 mg/kg/injection, schedule: Q01DX009 (ip), vehicle: saline 92 % of control | dose: 400.0 mg/kg/injection, schedule: Q01DX009 (ip), vehicle: saline 100 % of control

COC(=O)C1C2CC(C3OC23)C1C(=O)OC (centres undefined)
inactive: dose: 100.0 mg/kg/injection, schedule: Q01DX009 (ip), vehicle: other 110 % of control | dose: 200.0 mg/kg/injection, schedule: Q01DX009 (ip), vehicle: other 108 % of control | dose: 400.0 mg/kg/injection, schedule: Q01DX009 (ip), vehicle: other 93 % of control

CC/C(C[n+]1ccccc1)=N\Nc1ccc([N+](=O)[O-])cc1[N+](=O)[O-]
inactive: dose: 5.0 mg/kg/injection, schedule: Q01DX001 (ip), vehicle: acetone 102 % of control | dose: 10.0 mg/kg/injection, schedule: Q01DX001 (ip), vehicle: acetone 100 % of control | dose: 20.0 mg/kg/injection, schedule: Q01DX001 (ip), vehicle: acetone 103 % of control | dose: 20.0 mg/kg/injection, schedule: Q04DX003 (ip), vehicle: saline 103 % of control | dose: 40.0 mg/kg/injection, schedule: Q01DX001 (ip), vehicle: acetone 108 % of control | dose: 40.0 mg/kg/injection, schedule: Q04DX003 (ip), vehicle: saline 95 % of control | dose: 80.0 mg/kg/injection, schedule: Q01DX001 (ip), vehicle: acetone 100 % of control

O=C1O/C(=C\c2ccccc2)C(O)=C1c1ccccc1
inactive: dose: 100.0 mg/kg/injection, schedule: Q01DX001 (ip), vehicle: saline with Tween-80 100 % of control

Nc1ccc(OCCNC(=O)Nc2ccc(S(=O)(=O)F)cc2)c(Cl)c1
inactive: dose: 75.0 mg/kg/injection, schedule: Q01DX001 (ip), vehicle: other 96 % of control | dose: 150.0 mg/kg/injection, schedule: Q01DX001 (ip), vehicle: other 105 % of control | dose: 300.0 mg/kg/injection, schedule: Q01DX001 (ip), vehicle: other 98 % of control

O=C(O)c1cc(=O)c(O)c2c(O)c(O)c(O)cc2c1
inactive: [9] 103 % of control | [10] 91 % of control

Cc1ccc([N+](=O)[O-])cc1NC(=O)Nc1ccc([N+](=O)[O-])cc1
inactive: dose: 100.0 mg/kg/injection, schedule: Q01DX009 (ip), vehicle: Klucel (hydroxypropylcellulose) (HPC) 90 % of control | dose: 200.0 mg/kg/injection, schedule: Q01DX009 (ip), vehicle: Klucel (hydroxypropylcellulose) (HPC) 90 % of control | dose: 400.0 mg/kg/injection, schedule: Q01DX009 (ip), vehicle: Klucel (hydroxypropylcellulose) (HPC) 98 % of control

Cc1ccccc1CC1(Br)CC(C)(C)c2ccccc2C1=O (centres undefined)
inactive: dose: 100.0 mg/kg/injection, schedule: Q04DX003 (ip), vehicle: Klucel (hydroxypropylcellulose) (HPC) 93 % of control | dose: 200.0 mg/kg/injection, schedule: Q04DX003 (ip), vehicle: Klucel (hydroxypropylcellulose) (HPC) 106 % of control | dose: 400.0 mg/kg/injection, schedule: Q04DX003 (ip), vehicle: Klucel (hydroxypropylcellulose) (HPC) 88 % of control

OCc1ncn[nH]1
inactive: [9] 102 % of control | [10] 95 % of control | [11] 107 % of control

CN1CCC(O)(C#N)CC1
inactive: dose: 7.5 mg/kg/injection, schedule: Q01DX001 (ip), vehicle: saline 101 % of control | dose: 15.0 mg/kg/injection, schedule: Q01DX001 (ip), vehicle: saline 106 % of control

CCN(CC)C(=O)C1C2CCC(C2)C1C(=O)N(CC)CC (centres undefined)
inactive: [5] 100 % of control | [6] 100 % of control | [7] 100 % of control

COc1ccc(Nc2cc(N)nc(N)n2)c(=S)[nH]1
inactive: [5] 97 % of control | [6] 97 % of control | [7] 93 % of control

CSc1ncnc2c1ncn2NC(=O)C1CC(=O)N(C)C1 (centres undefined)
inactive: [9] 107 % of control | [10] 103 % of control | [11] 100 % of control
